Data on 99 compounds can be found in ChEMBL document CHEMBL3507680, “University of Dundee, Gates Library screen for HepG2 cell viability”.

The series is described as follows: Human HepG2 cell viability assay in 384 well format. Further details: dose 125 nL, time 70.5 hour; cytotoxicity at 70.5 h: concentration not given beside the values. Particulars: HepG2 cells, read-out: Inhibition. The format is toxicity, cell-based.
Consider `CC(C)(C)c1nnc(CN2CCN(C(=O)N3CCCCC3)CC2)o1`, for which the cytotoxicity at 70.5 h was -3.76%.
To `CN(C)c1cc(C2CCN(C(=O)c3cnn(C)c3)CC2)ccn1` belongs -4.9%.
To `Cc1ccccc1CCNC(=O)CN1CCCC(Cn2cncn2)C1` (centres undefined) belongs -3.82%.
To `Cc1c(S(=O)(=O)NC2CC2)cc2c(C)cc(=O)n3c2c1CCC3` belongs 0.953%; to `CNC(=O)CS(=O)(=O)C1CCN(S(=O)(=O)c2cccc(C(C)=O)c2)CC1`, -6.78%; to `Cc1cccc(CC(=O)N2CCCC(c3n[nH]c4nccnc34)C2)c1` (centres undefined), 14.6%.
For the compound `COc1ccccc1-n1c(C)cc(CNC(=O)NC(C)C)c1C`, the cytotoxicity at 70.5 h was -9.03%.
With `CC1(C(N)=O)CN(S(=O)(=O)c2cccc(F)c2)CCO1` (centres undefined), the cytotoxicity at 70.5 h stood at 14.7%.
To `CSCC[C@@H](CO)Nc1ccc(-c2nc(-c3ccccc3C)no2)cn1` belongs -6.4%; to `Cc1nccc(C2CCCCN2Cc2ccc(F)cc2)n1` (centres undefined), 10.1%.
To `Cc1nccc(C2CCCN(S(=O)(=O)N3CCOCC3)C2)n1` (centres undefined) belongs 19.2%; to `CCN(CCC(=O)OC)C(=O)c1cc(F)cc2[nH]cnc12`, 0.0493%.
To `Cn1cnnc1C1CCN(C(=O)CCCOCc2ccccc2)CC1` belongs -11.3%.
On to `O=C(c1cccnc1-n1cncn1)N1CCN(c2ccccc2)CC1`, for which the cytotoxicity at 70.5 h was -8.14%.
To `CCOC(=O)N1CCN(C(=O)c2ccc3ccn(C)c3c2)CC1` belongs -8.79%; to `Cc1nnc(Cn2cc(I)cc(C)c2=O)o1`, 3.35%; to `COc1cccc([S+]([O-])CC(=O)NCc2cc(F)cc(F)c2)c1` (centres undefined), -1.69%.
To `CC(C)c1nnc2n1CCN(C(=O)c1ccnc(-n3ccnc3)c1)C2` belongs 19.7%; to `CC1=C[C@@H](CN2CCC(O)CC2)[C@H](C(C)C)C[C@H]1Cc1nnc(C)o1`, -4.6%; to `CCSc1ccccc1C(=O)NCC1CCN(Cc2ccsc2)CC1`, 2.8%.
To `Cn1ccnc1CN1CCN(Cc2noc(C3CC3)n2)CC1` belongs -12.6%; to `Cc1ccc(CN2CCN(C3CSCCSC3)CC2CCO)o1` (centres undefined), -6.76%; to `OCC1CCCN1c1cc(NCCNc2ccccn2)ncn1` (centres undefined), 0.758%.
In the case of `Cc1nccn1C1CCCN(C(=O)CCNc2ncccn2)C1` (centres undefined), the cytotoxicity at 70.5 h is -3.44%.
To `COC(=O)CCn1ccc(=O)c2ccccc21` belongs -5.76%; to `CCc1ccc2nc(NCC(O)CO)cc(C)c2c1` (centres undefined), 1.81%.
Turning to `CCS(=O)(=O)N1CCC2(CCC(N3CCCC3)c3ccccc32)CC1` (centres undefined), the cytotoxicity at 70.5 h is -10.6%.
`O=C(NCCNc1cc(-n2cccc2)ncn1)c1cccs1`: the cytotoxicity at 70.5 h is -4.09%.
To `c1ccc2c(Cc3nnc([C@H]4CCN(C5CCCCC5)C4)o3)c[nH]c2c1` belongs -0.596%.
To `Cc1ccc(NC(=O)NC(C)(C)c2noc(C)n2)cc1` belongs 7.68%.
As to `CNc1ncc(CN2CCC(CCc3ccccc3)CC2)cn1`, the cytotoxicity at 70.5 h is -1.31%.
On to `O=C(NCc1cncc2c1CCN(Cc1ccccc1)C2)C1CC1`, for which the cytotoxicity at 70.5 h was determined as 9.59%.
To `O=C(C1CCOCC1)N1CCc2ncc(CN3CCCCC3)n2CC1` belongs -10.2%; to `CCNC(=O)CCN1CCCC1c1cccc2c1OCCO2` (centres undefined), -7.15%; to `CC(C)c1cc(C(=O)N[C@H]2CN(C3CCOCC3)C[C@@H]2C2CC2)no1`, -6.62%.
To `Cn1nc(Cn2ccnc2)c2c1CN(Cc1ccoc1)C2` belongs 24.7%; to `CC(=O)NCCNC(=O)CN1CCCCC1Cn1cncn1` (centres undefined), -8.39%; to `CC(Cc1ccco1)NC(=O)Nc1cccnc1` (centres undefined), 2.87%.
To `Cc1cnn(CC2CCCN2CC(=O)NC2CCOCC2)c1` (centres undefined) belongs 0.77%; to `CCC(=O)Nc1ccc(F)cc1OC`, 14.6%.
Regarding `CS(=O)(=O)c1ccc(NC(=O)N2CCc3sccc3C2)cn1`, the cytotoxicity at 70.5 h amounted to 46.4%.
To `Cn1cc2ncn(C3CCN(c4ccccc4F)CC3)c(=O)c2n1` belongs -11%; to `CS(=O)(=O)N1CC[C@H]2C[C@@H](C(=O)N3CCOCC3)O[C@@H]2C1`, 2.65%; to `Cc1ccc(-c2noc(CN3CCc4cncnc4C3)n2)cc1`, 11.6%.
To `CCCS(=O)(=O)NC(=O)c1ccc(Br)o1` belongs 1.65%; to `CNC(=O)CCc1cc(C2CCCCN2C)nc(C)n1` (centres undefined), -7.9%; to `CC(C)NC(=O)N1CC[C@@H]2[C@@H]1CC(=O)N2Cc1cccnc1`, -13.6%.
To `Cc1c(Cl)c(C(=O)N2C[C@@H](C(=O)O)[C@H](c3cccnc3)C2)nn1C` belongs 8.35%; to `CCN(C)c1ncnc2c1CCN(C(=O)c1cnccn1)CC2`, -12.8%; to `CCOCCCNc1nc(O)cc(C2CC(=O)N(C)C2)n1` (centres undefined), 24.8%.
As to `CC(C)c1nc(C2CCCN(C(=O)c3ccc(N(C)C)nn3)C2)no1` (centres undefined), the cytotoxicity at 70.5 h is -1.24%.
With `Cc1cc(C)n(CC2CN(CCOc3cccc(C#N)c3)CCO2)n1` (centres undefined), the cytotoxicity at 70.5 h is 0.061%.
To `Cc1c[nH]nc1C1CN(c2cnccn2)CCO1` (centres undefined) belongs -4.52%; to `CC(C)(C)CNC[C@H]1Cn2ccnc2CO1`, -4.98%; to `Cc1oncc1S(=O)(=O)N1CCCC(C)(Cc2ccc3c(c2)OCO3)C1` (centres undefined), 14.3%.
As for `CCC(CC)CN1CCC2(CCCN(c3ncccn3)C2)C1` (centres undefined), the cytotoxicity at 70.5 h was determined as 25.1%.
`Cc1cc(C)n(C2CCCN(C(=O)CCCNc3ncccn3)C2)n1` (centres undefined): the cytotoxicity at 70.5 h was found to be 27.5%.
To `COc1cccc(-n2ccc3nc(N4CCCC4)ncc3c2=O)c1` belongs -4.05%; to `O=C(c1ccc2cccnc2n1)N(Cc1ccsc1)CC1CCCO1` (centres undefined), -12.4%; to `CC1=Nc2c(c(=O)[nH]n2C(C)C)C(c2cccc(OC(F)F)c2)S1` (centres undefined), -17.2%.
To `CN1CCC(Cc2cnc3ccccc3c2)C1` (centres undefined) belongs 1.19%.
`O=C(NCC(O)c1ccc(F)cc1F)c1ccccc1` (centres undefined): the cytotoxicity at 70.5 h was -4.27%.
For the compound `CC(CN1CCC2(CC1)N=C(c1cccnc1)NC2=O)c1ccccc1` (centres undefined), the cytotoxicity at 70.5 h was -7.3%.
To `CCCn1ncnc1C(C)NC(=O)CC1CCN(C(C)C)CC1` (centres undefined) belongs -4.86%; to `CN(c1ncnc2sccc12)C1CCCN(c2cccnn2)C1` (centres undefined), -13.9%.
To `C=C(C)COc1ccccc1C(=O)N1CCC(C(=O)NCC)C1` (centres undefined) belongs -0.0263%; to `Cc1cc(C(=O)NCCc2nc3c(s2)CCCC3)n(C)n1`, -3.4%; to `CC(C)[C@@H]1CN(Cc2ccccc2C#N)C[C@H]1C(=O)O`, 21%.
To `Cc1ccc(CN2CC[C@H]3[C@H]2CC(=O)N3c2cccnc2)o1` belongs 8.92%; to `COc1ccc2c(c1)CN(c1cc(N3CCCC3CO)ncn1)CC2` (centres undefined), -7.51%.
As for `C1CCC(c2nc3c(c(N4CCN5CCCC5C4)n2)CCNCC3)C1` (centres undefined), the cytotoxicity at 70.5 h is -5.97%.
With `O=C(NC1CCCC1)NC1CCC(C(=O)N2CCSCC2)CC1` (centres undefined), the cytotoxicity at 70.5 h was -9.08%.
In the case of `O=c1cc(CN(Cc2ccco2)C2CC2)nc2ccc(Br)cn12`, the cytotoxicity at 70.5 h was -3.54%.
To `Cc1ccccc1CC(=O)N1CCOCC1c1c(C)n[nH]c1C` (centres undefined) belongs -6.23%; to `CCN(CC)S(=O)(=O)c1cc2c3c(c1)c(C)cc(=O)n3CC2`, 3.57%; to `O=C1CC2(CCCCN2CC2CC2)CN1c1ccccc1` (centres undefined), -3.65%.
To `COc1cccc(CC(=O)N2CCCC2c2nc(C)c(F)c(O)n2)c1` (centres undefined) belongs -1.47%.
To `O=C1N[C@@H]2CCN(C(=O)N3CCOCC3)[C@@H]2C(=O)N1Cc1ccccc1` belongs -4.61%; to `Cc1cccc2c1nc1n2[C@@H](CNC(=O)NC(C)C)COC1`, -0.416%; to `CN(C)C1CCCN(C(=O)NCCc2cc(F)ccc2F)C1` (centres undefined), 23.5%.
With `CN(C)Cc1nnc(C2CCN(c3ncccn3)CC2)n1C1CC1`, the cytotoxicity at 70.5 h was determined as 12.1%.
To `N#Cc1cccc(N2CCC(c3nccn3Cc3cscn3)CC2)n1` belongs -2.31%; to `CN(C)c1ccc(CC2COCCN(Cc3nccn3C)C2)nn1` (centres undefined), -0.733%; to `CN(Cc1ccco1)Cc1ccccc1CNC(=O)c1c[nH]nn1`, -1.03%.
In the case of `Cc1cnc(N2CCc3c(cnc(C)c3C(=O)O)C2)nc1`, the cytotoxicity at 70.5 h is -2.57%.
To `Cc1occc(=O)c1OCc1noc(C(=O)NCC(C)C)n1` belongs -16.8%; to `NC(=O)CC1CCCCN1C(=O)Cc1cccc(Br)c1` (centres undefined), -4.57%; to `CN(C)C(=O)Cn1ccc2cc(NC(=O)N3CCSCC3)ccc21`, -7.46%.
Consider `O=C(NCc1ccco1)[C@H]1CC[C@@H]2[C@@H](CCN2C2CCC2)O1`, for which the cytotoxicity at 70.5 h was -15.1%.
To `c1cnc(N2CCCC3(CCN(c4ncccn4)C3)C2)nc1` (centres undefined) belongs 26.5%; to `COc1cccc([C@@]2(O)CC[C@@H]3CN(C(=O)c4cn(C)nc4C)C[C@@H]32)c1`, 1.27%; to `O=C(COC1CCCCC1)Nc1ccn(Cc2cccnc2)n1`, -7.64%.
`N#Cc1cccc(S(=O)(=O)N(CC2CCC2)c2cn[nH]c2)c1`: the cytotoxicity at 70.5 h was -8.03%.
`Cc1nccc(N[C@H]2CN(C(=O)CN3CCOCC3)C[C@@H]2C(C)C)n1`: the cytotoxicity at 70.5 h is -1.67%.
In the case of `O=C(c1cscn1)N1CCc2ncc(Cn3cncn3)n2CC1`, the cytotoxicity at 70.5 h was -6.09%.
To `CC(=O)Nc1ccc2nc(CN(C)Cc3noc(C)n3)ccc2c1` belongs -4.56%; to `CC(C)c1nc(CSc2nnc(C3CC3)n2CC(N)=O)no1`, -7.31%.
In the case of `CN1C(=O)CC2(CCNCC2)c2ccccc21`, the cytotoxicity at 70.5 h was determined as 6.26%.
To `Cc1nc(C)c(C(C)NCc2c(C(C)C)nn(C)c2N(C)C)s1` (centres undefined) belongs -0.665%.
